Test results published in PubChem BioAssay (NCI).
Values joined by “and” are separate entries in the source; they are usually repeats but may differ in a detail not shown here. Equal entries are not always repeated.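 1) Cells in 96-well plates. 2) Compound, 48 h, 5 concentrations. 3) Linear interpolation between surrounding doses. 4) Unreached endpoint = highest concentration. Here, GI50 denotes the concentration required for 50% inhibition of growth. TGI: total growth inhibition.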

Experiments:
Test in all cases: NCI tumour cell line growth inhibition, 48 h
[1] = system: MDA-N
[2] = system: DLD-1 colon
[3] = system: KM20L2 colon
[4] = system: LXFL 529 NSCLC
[5] = system: DMS 273 small cell lung
[6] = system: XF 498 CNS
[7] = system: M19-MEL melanoma
[8] = system: SNB-78 CNS
[9] = system: RXF-631 renal
[10] = system: P388/ADR leukemia
[11] = system: P388 leukemia
[12] = system: SN12K1 renal

Row | Compound | TGI [1] | TGI [2] | TGI [3] | TGI [4] | TGI [5] | TGI [6] | TGI [7] | TGI [8] | TGI [9] | further results
1 | O=C(O)/C=C/c1ccc[c]([Sb](=[O])([OH])[OH])c1 | > 100 µM |  |  |  |  |  |  |  |  | GI50 [1]: > 100 µM
2 | COC1=CC(=O)C2C(C1=O)[C@@H]1c3ccccc3OC(C)(C)[C@H]21 (stereo not given in full) |  | 34 µM | 66.3 µM | 32.8 µM | 40.6 µM | 32.1 µM | 34.5 µM | 41.5 µM |  | 
3 | COc1cccc2c1C(=O)c1c(O)c3c(c(O)c1C2=O)C[C@@](O)(C(C)=O)C[C@@H]3OC1CC([N+]([O-])(Cc2ccccc2)Cc2ccccc2)C(O)C(C)O1 (stereo not given in full) |  | 3.22 µM | 2.92 µM | 2.31 µM |  | 2.63 µM | 2.76 µM |  | 2.93 µM | 
4 | CC(C)(CN1CCOCC1)C(=O)/C=C/c1ccc(/C=C/C(=O)C(C)(C)CN2CCOCC2)cc1 |  | 1.19 µM | 2.89 µM | 2.59 µM | 1.87 µM | 2.84 µM |  | 3.07 µM | 3.13 µM | 
5 | S=c1nc(C(c2ccccc2)c2ccccc2)[nH][nH]1 |  | > 100 µM | > 100 µM |  | > 100 µM | > 100 µM | > 100 µM |  | > 100 µM | 
6 | Cn1cnc([N+](=O)[O-])c1Sc1nnnn1C |  | 29.5 µM |  | 24.4 µM | 36.1 µM | 30 µM | 29.9 µM | 30.2 µM |  | 
7 | CC(CN1CC(=O)NC(=O)C1)N1CC(=O)NC(=O)C1 (stereo not given) | > 750 µM | > 750 µM | > 750 µM |  | > 750 µM | > 690 µM | 745 µM | > 750 µM |  | TGI [10]: > 750 µM; TGI [11]: > 750 µM; GI50 [12]: 67.1 µM; TGI [12]: > 750 µM
8 | CCC[CH2][Sn]([CH2]CCC)([CH2]CCC)[O]C(=O)C(OC(C)=O)c1ccccc1 (stereo not given) |  |  | 0.217 µM |  |  |  |  |  |  | GI50 [3]: 0.0801 µM
9 | CC(N)Cc1ccc(Cl)cc1 (stereo not given) |  | > 100 µM | > 100 µM | > 100 µM | > 100 µM | > 100 µM |  |  |  | 
10 | O=c1/c(=C/c2c(O)ccc3ccccc23)sc2nc3ccccc3n12 |  | > 100 µM | > 100 µM | > 100 µM | > 100 µM | > 100 µM | > 100 µM | > 100 µM | > 100 µM | 
11 | COC1CC(C)C(OC)c2cc(O)cc(c2O)NC(=O)/C(C)=C/C=C\C(C)C(OC(N)=O)/C(C)=C\C(C)C1OC (stereo not given) | 13.3 µM and 6.75 µM | 10.5 µM and 11.2 µM |  | 7.64 µM | 0.905 µM and 6.33 µM |  | 15.2 µM and 10.7 µM | 18.3 µM |  | GI50 [2]: 4.65 µM and 5.28 µM; GI50 [3]: 0.21 µM; GI50 [7]: 0.498 µM; TGI [10]: 18.2 µM
12 | COc1cc(O)c(C(=O)CC(C)=O)c(OC)c1 |  | > 100 µM | > 100 µM | > 100 µM | > 100 µM | > 100 µM |  | > 100 µM |  | 
13 | COc1ccc2c3c(c(C(=O)O)oc13)CCC2 |  | > 100 µM |  | > 100 µM | > 100 µM | > 100 µM | > 100 µM | > 100 µM |  | 
14 | Cc1cc2c(cc1C)[n+](=O)c(C(=O)/C=C/c1ccc3c(c1)OCO3)c(C)n2[O-] | > 100 µM | > 100 µM | > 100 µM |  | > 100 µM | 54.9 µM | > 100 µM | > 100 µM | > 91.3 µM | 
15 | NCCOCn1cc(Cc2cccc(OCc3ccccc3)c2)c(=O)[nH]c1=O |  | > 100 µM | > 100 µM | > 100 µM | > 100 µM |  |  | > 100 µM |  | 
16 | Cc1ccc(NC(=O)C(=O)C(C(=O)c2ccc3ccccc3c2)C2OC(=O)c3ccccc32)c(C)c1 (stereo not given) |  | 26.5 µM | 56 µM | 20.4 µM |  | 10.7 µM | 22.6 µM | 72.6 µM | 20.6 µM | 
17 | CC(=O)NNc1nc(C)c(C(/C=C/c2ccc([N+](=O)[O-])cc2)=N/NC(N)=O)s1 | > 100 µM |  |  |  |  |  |  |  |  | 
18 | O=C1OC(c2ccccc2)(c2ccccc2)c2ccc3ccc(F)cc3c21 |  | > 100 µM | > 100 µM | > 100 µM | > 100 µM | > 100 µM | > 100 µM |  | > 100 µM | 
19 | CSC(=Nc1ccccc1Cl)NC(=O)c1ccc(Br)cc1 |  | > 100 µM | > 100 µM | > 100 µM |  | > 100 µM | > 100 µM | 88.6 µM |  | 
20 | CCOc1cc(C(=O)O)c2c(ccc3ccc(OC)c(OC)c32)c1OC | > 100 µM |  |  |  |  |  |  |  |  | 
21 | O=C1C=C2C=CC3CC2(O1)C1CCCCN31 (stereo not given) | > 100 µM |  |  |  |  |  |  |  |  | GI50 [1]: 16.8 µM and 18.8 µM and 36 µM
22 | O=C(N/C(=C\c1c(O)ccc2ccccc12)c1nc2ccccc2[nH]1)c1ccccc1 |  | > 100 µM | > 100 µM | > 100 µM | > 100 µM | > 100 µM | > 100 µM | > 100 µM | > 100 µM | 
23 | CCO/C(CCn1[nH]c(=O)c(Cl)c(Cl)c1=O)=N\NC(=O)C(=O)NN |  | > 100 µM | > 100 µM | > 100 µM | > 100 µM | > 100 µM | > 100 µM |  | > 100 µM | 

Row | Compound | TGI [1] | TGI [2] | TGI [3] | TGI [4] | TGI [5] | TGI [6] | TGI [7] | TGI [8] | TGI [9] | further results
24 | O=C1NC(O)c2ccccc2O1 (stereo not given) | > 100 µM |  |  |  |  |  |  |  |  | 
25 | CC1(C)OC2CC3COC(=O)C3CC2O1 (stereo not given) |  | > 100 µM | > 100 µM | > 100 µM | > 100 µM |  | > 100 µM | > 100 µM | > 100 µM | 
26 | COC1(OC)C2(Cl)C(Cl)=C(Cl)C1(Cl)C1c3ccc(C(C)=O)c4cccc(c34)C12 (stereo not given) | 86.6 µM |  | 87.4 µM | > 100 µM | 20.9 µM |  | > 100 µM | > 100 µM |  | 
27 | C/C(=N\NC(=O)CC#N)C(CN1CCCCC1)C(c1ccccc1)c1c(O)c2ccccc2oc1=O (stereo not given) | > 100 µM |  |  |  |  |  |  |  |  | 
28 | C#CCN(N=O)C(=O)NCCCCC(NC(=O)OCc1ccccc1)C(=O)OCc1ccccc1 (stereo not given) |  | 85.2 µM | > 100 µM | 41.4 µM | > 100 µM | 74.1 µM | 63 µM | > 100 µM |  | 
29 | O=C(Nc1cc(Cl)ccc1Cl)c1cc2cccc(Br)c2oc1=O |  | > 100 µM | > 100 µM |  | > 100 µM | 72.6 µM | > 100 µM |  |  | 
30 | COC(NC(N)=O)C(=O)O (stereo not given) | > 100 µM |  |  |  |  |  |  |  |  | 
31 | Cc1cc(Br)cc(C)c1NC(=O)C(=O)C(C(=O)c1ccncc1)C1OC(=O)c2ccccc21 (stereo not given) |  | > 100 µM | > 100 µM | > 100 µM | > 100 µM | > 100 µM |  | > 100 µM | > 100 µM | 
32 | NC(=O)COc1c(Br)cc(Br)cc1Br |  | > 100 µM | > 100 µM |  | > 100 µM | > 100 µM | > 100 µM |  | > 100 µM | 
33 | O=C(O)CNc1ccc(Cl)c(Cl)c1 | 73 µM |  |  |  |  |  |  |  |  | 
34 | CCOP(=O)(OCC)/C(C#N)=C\c1ccsc1 |  | > 100 µM | > 100 µM | > 100 µM | > 100 µM | > 100 µM | > 100 µM | > 100 µM |  | 
35 | O=C1NC(=O)C(=Cc2c3ccccc3cc3ccccc23)C(=O)N1 |  |  | > 100 µM | > 100 µM | > 100 µM | > 100 µM | > 100 µM |  | > 100 µM | 
36 | O=C(O)C(Br)C(Br)C(=O)O (stereo not given) | > 100 µM |  |  |  |  |  |  |  |  | 
37 | COc1cc2c(c(O)c1C)C(=O)CC(c1ccccc1)O2 (stereo not given) |  | > 100 µM | 82.3 µM | > 100 µM |  |  | > 100 µM | > 100 µM | > 100 µM | 
38 | CCN(CC)CCC(=O)OC1C(C)=CC(C)C(=O)CC(C(C)CC2CCC(O)C(OC)C2)OC(=O)C2CCCCN2C(=O)C(=O)[C@@]2(O)OC(CCC2C)CC(OC)\C(C)=C/C=C/C=C/C(C)CC(C)C(=O)C1OC (stereo not given in full) | 21.7 µM |  |  |  |  |  |  |  |  | 
39 | COC1=CC(=O)C(Br)=CC1=O |  | > 100 µM | > 100 µM | 31.2 µM |  | 31.5 µM | 32 µM |  | 99.2 µM | 
40 | O=C1NC(=O)[C@@]2(CC[C@@H](O)C2)c2ccncc21 | > 100 µM |  |  |  |  |  |  |  |  | 
41 | O=C(O)C1CCN(Cc2oc(CO)cc(=O)c2O)C1 (stereo not given) | > 100 µM |  |  |  |  |  |  |  |  | 
42 | Cc1cc2c(c3nocc13)C(=O)c1ccccc1C2=O |  | > 100 µM | > 100 µM | > 100 µM | > 100 µM |  | > 100 µM |  | > 100 µM | 
43 | CN(C)CCNC(=O)c1cccc2nc3ccc4cccnc4c3nc12 |  | 8.36 µM |  |  | 1.4 µM |  | 1.62 µM | 11.3 µM | 11.8 µM | 
44 | Cc1c(NC(=O)CCl)c(=O)oc2c(C)c3occc(=O)c3cc12 | 31 µM |  |  |  |  |  |  |  |  | 
45 | CCN(CCCl)CCCCCNc1c2ccccc2nc2ccc(OC)cc12 |  | 2.95 µM | 4.38 µM | 1.93 µM | 1.78 µM | 1.36 µM | 2.15 µM | 8.57 µM |  | 
46 | CCNc1cc2oc(=O)cc(C(F)(F)F)c2cc1C | > 100 µM |  |  |  |  |  |  |  |  | 
